In US20190046600A1, “COMPOSITIONS AND USES THEREOF” (priority 2016, published 2019):
Entries after “also recorded” stand apart in the source; their conditions may differ. Square brackets hold non-standard residues; d marks the D form. Peptide text beside a SMILES is read from it. Phe(4-guanidino) = N=C(N)Nc1ccc(C[C@H](N)C(=O)O)cc1

Tests used:
NCI-H460 cells [1] = assay: HILR-001 with or without 30 nM Olaparib on NCI-H460, alamarBlue and CellTiter-Glo time course; assay type: cell-based, human
Experimental: At each time point cell viability was measured by two assay readouts, alamarBlue® and CellTiter-Glo. Conversion of alamarBlue® to a fluorescent product serves as a readout of the metabolic activity of cells, whereas CellTiter-Glo is based on quantification of the ATP present.
2) Cells were harvested and seeded into 96-well plates at 500 cells/well. 3) HILR-001 was made up from a 10 mM stock solution and added directly to cells in doubling dilutions starting at 200 μM. […] The total final DMSO concentration was 0.25%. 4) Cells were grown with compound for 24, 48, 72 or 96 hours at 37° C. 5% CO2 in a humidified atmosphere. 5) AlamarBlue® 10% (v/v) was then added and incubated for a further 4 hours, and fluorescent product detected using the BMG FLUOstar plate reader. 6) On duplicate plates the media was removed from the cells, CellTiter-Glo was diluted in PBS (1:10) and 100 μl added to the cells. 7) Plates were mixed on an orbital shaker for 2 minutes and incubated for a further 10 minutes at room temperature. Luminescent signal was then measured using the BMG FLUOstar plate reader.

[2] = tested on: NCI-H460 human non-small cell cancer; assay: In vitro cytotoxicity of Olaparib on NCI-H460, alamarBlue, 96 h; assay type: cell-based; conditions: 30 nM Olaparib
Experimental: 2) Cells were harvested and seeded into 96-well plates at 500 cells/well. […] Final DMSO concentration was 0.3%. 4) Cells were grown with compound for 96 hours at 37° C. 5% CO2 in a humidified atmosphere. 5) AlamarBlue® cell viability reagent (Life Technologies, Inc.) 10% (v/v) was then added and incubated for a further 4 hours, and fluorescent product detected using the BMG FLUOstar plate reader. 6) Data were analysed using a 4-parameter logistic equation in GraphPad Prism.

[3] = tested on: Lactate Dehydrogenase A [LDHA]; assay: LDH activity assay on lysates of treated NCI-H460 cells (Abcam ab102526); assay type: cell-based, human; conditions: NCI-H460 cells treated 24 h or 96 h, normalised to protein; read-out: IC50 for inhibiting the activity of LDH
Experimental: An LDH activity assay was conducted on samples derived from NCI-H460 cells treated with 2 test compounds (HILR-025 and HILR-030) for either 24h or 96h. […] Therefore a BCA assay was conducted to estimate the total amount of protein present in each LDH assay lysate and this was used to normalise the enzyme activity data. As an indication of cell viability, an Alamar blue assay was also carried out at both timepoints, to serve as an additional point of reference.
2) Cells were harvested and seeded into 96-well plates at either 500 cells/well (for the 96h timepoint) or 5000 cells/well for the 24h timepoint. […] 6) At the end of the assay (24 or 96h), Alamar blue 10% (v/v) was added to one set of plates, incubated for a further 4 hours, and fluorescent product detected using the BMG FLUOstar plate reader. […] 10) LDH activity was measured in the cleared lysates using an LDH activity kit (Abcam, ab102526). 11) After preparation of the LDH activity assay reactions, according to the manufacturer's instructions, absorbance at 450 nm was measured at the initial time to determine (A450)initial 12) Further absorbance readings were taken at 3 minute intervals for up to 15 minutes. […] 16) The LDH activity of each sample was determined by the following equation:
[formula] […] Protein content in remaining cleared lysates was determined using a BCA assay (ThermoScientific). • b. Data were analysed using GraphPad Prism. […]

[4] = target: T1, recombinant human caspase 3 (Homo sapiens, UniProt P42574); assay: Apo-ONE Homogeneous Caspase-3/7 assay with recombinant caspase-3; assay type: biochemical; conditions: 0.1 or 0.3 U enzyme
T1 construct: purchased Enzo Life Sciences BML-SE169-5000
T1 sequence (P42574 29-175 limits assumed): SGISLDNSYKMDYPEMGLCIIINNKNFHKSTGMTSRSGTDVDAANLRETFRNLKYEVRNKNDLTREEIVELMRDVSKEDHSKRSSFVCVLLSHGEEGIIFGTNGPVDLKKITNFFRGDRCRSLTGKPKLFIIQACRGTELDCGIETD
T1 sequence (P42574 176-277 limits assumed): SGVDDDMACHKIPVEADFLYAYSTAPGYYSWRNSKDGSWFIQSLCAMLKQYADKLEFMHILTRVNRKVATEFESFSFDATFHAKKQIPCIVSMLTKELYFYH
Source text: DEVD-CHO was used as a positive control.
The Promega kit consists of a buffer that supports caspase 3/7 enzymatic activity and the caspase-3/7 substrate rhodamine 110, bis-(N-CBZL-aspartyl-L-glutamyl-L-valyl-L-aspartic acid amide; Z-DEVD-R110) Z-DEVD-R110 exists as a pro-fluorescent substrate prior to the assay;
upon sequential cleavage and removal of the DEVD peptides by caspase-3/7 activity and excitation at 499 nm, the rhodamine 110 leaving group becomes fluorescent. The amount of fluorescent product generated is reported to be proportional to the amount of caspase-3/7 cleavage that occurs in the sample.
In all subsequent experiments, 0.1 U enzyme was used and plate reader settings were adjusted to read every 5 min for 2h.
The DEVD-CHO control or HILR-030 were co-incubated for 2 hours with substrate or human recombinant caspase-3 according to the protocol in the table below.

NCI-H460 cells [5] = conditions: NCI-H460, 96 hours with compound, alamarBlue
Experimental: Methods measuring cell viability include the use of alamarBlue® cell viability reagent (Life Technologies, Inc.) (resazurin) with fluorescence detection.
1) NCI-H460 cells were grown in Ham's F12 media supplemented with 10% FBS. 2) Cells were harvested and seeded into 96-well plates at 500 cells/well. 3) Compounds were made up from stock solutions and added directly to cells in doubling dilutions starting at 200 μM. Final DMSO concentration was 0.2%. 4) Cells were grown with compound for 96 hours at 37° C. 5% CO2 in a humidified atmosphere. 5) A resazurin dye composition (AlamarBlue® cell viability reagent (Life Technologies, Inc.)) 10% (v/v) was then added and incubated for a further 4 hours, and fluorescent product detected using the BMG FLUOstar plate reader. 6) Media only background readings were subtracted before data were analysed using a 4-parameter logistic equation in GraphPad Prism.

[6] = 30 nM Olaparib co-incubated with 50 μM HILR-001

IC50 (NCI-H460 cells [5]) [µM]	Compound	ATP levels (CellTiter-Glo) (NCI-H460 cells [1]; [6])	HILR-001-mediated cell death (alamarBlue) (NCI-H460 cells [1]; [6])	ATP levels or cancer cell death (NCI-H460 cells [1]; Olaparib with higher doses of HILR-001 (100 μM and 200 μM))	toxicity to NCI-H460 cells [2]	IC50 [3] [µM]	caspase-3 activity [4]
–	O=C(c1cc(Cc2n[nH]c(=O)c3ccccc23)ccc1F)N1CCN(C(=O)C2CC2)CC1 [Olaparib, 4-[3-(4-cyclopropanecarbonylpiperazine-1-carbonyl)-4-fluorobenzyl]-2H-phthalazin-1-one]	partially reverses the HILR-001-induced fall in ATP; also recorded: partially restored ATP levels	reversed 50 μM HILR-001-mediated cell death	did not affect ATP levels or cancer cell death	non-toxic	–	–
6	CC(C)[C@@H]1NC(=O)[C@@H]2CCCN2C(=O)[C@H](CCCNC(=N)N)NC(=O)[C@@H]2CCCN2C(=O)CNC(=O)[C@H](CCCNC(=N)N)NC(=O)[C@@H]2CCCN2C(=O)[C@H](Cc2c[nH]c3ccccc23)NC(=O)[C@H](Cc2c[nH]c3ccccc23)NC(=O)[C@H](Cc2ccc(NC(=N)N)cc2)NC(=O)[C@H](Cc2ccc(NC(=N)N)cc2)NC(=O)[C@H](Cc2c[nH]c3ccccc23)NC(=O)[C@H](Cc2c[nH]c3ccccc23)NC(=O)[C@H](Cc2ccc(NC(=N)N)cc2)NC(=O)[C@H](Cc2ccc(NC(=N)N)cc2)NC(=O)[C@H](Cc2c[nH]c3ccccc23)NC(=O)[C@H](Cc2c[nH]c3ccccc23)NC1=O [HILR-030] (cyclo(PRGPRPVWW[Phe(4-guanidino)][Phe(4-guanidino)]WW[Phe(4-guanidino)][Phe(4-guanidino)]WW))	–	–	–	–	22	inhibited the caspase-3 activity in a dose-dependent fashion
